In patent US6814960B1, “Hydroxystilbene compounds used as microbicidal active substances” (Ciba Specialty Chemicals Corporation, priority 1998, dated 2004):
Like-named read-outs stand apart in the source and are kept apart here.

How the values were obtained:
Format in all cases: cell-based
[1] = test system: Candida albicans ATCC 10231; assay: MIC value in microtitre plates (optical density); conditions: microtitre plate, CASO bouillon, 48 hours at 37° C., optical density 620 nm, ≦20% growth; some data indicative values
[2] = test system: Staphylococcus hominis DSM 20328; assay: MIC value in microtitre plates (optical density); conditions: microtitre plate, CASO bouillon, 48 hours at 37° C., optical density 620 nm, ≦20% growth; some data indicative values
[3] = test system: Pseudomonas aeruginosa CIP A-22; assay: MIC value in microtitre plates (optical density); conditions: microtitre plate, CASO bouillon, 48 hours at 37° C., optical density 620 nm, ≦20% growth; some data indicative values
[4] = test system: Aspergillus niger ATCC 6275; assay: MIC value in microtitre plates (optical density); conditions: microtitre plate, Sabouraud 2% glucose bouillon, 5 days at 28° C., optical density 620 nm, ≦20% growth; some data indicative values
[5] = test system: Escherichia coli NCTC 8196; assay: MIC value in microtitre plates (optical density); conditions: microtitre plate, CASO bouillon, 48 hours at 37° C., optical density 620 nm, ≦20% growth; some data indicative values
[6] = test system: Staphylococcus aureus ATCC 9144; assay: MIC in the agar diffusion test; conditions: for MIC: Staphylococcus aureus, read-out: MIC S. aureus
Description: (§1) Determination of the Minimum Inhibiting Concentration (MIC) in the Agar Diffusion Test

[7] = test system: Candida albicans ATCC 10231; assay: MIC in the agar diffusion test; conditions: for MIC: Candida albicans, read-out: MIC C. albicans
Description: as §1

[8] = test system: Pseudomonas aeruginosa CIP A-22; assay: MIC in the agar diffusion test; conditions: Mueller-Hinton agar, 24 hours at 37° C., solution in EtOH
Description: as §1

[9] = test system: Aspergillus niger ATCC 6275; assay: MIC in the agar diffusion test; conditions: for MIC: Aspergillus niger, ATCC6275, 72 h, read-out: MIC A. niger
Description: as §1

[10] = test system: Escherichia coli NCTC 8196; assay: MIC in the agar diffusion test; conditions: for MIC: Escherichia coli, read-out: MIC E. coli
Description: as §1

[11] = test system: Corynebacterium xerosis ATCC 373; assay: MIC in the agar diffusion test; conditions: Mueller-Hinton agar, 24 hours at 37° C.; (103) solution in EtOH
Description: as §1

[12] = Sabouraud 4% glucose agar, 3 days at 28° C., (101) solution in EtOH, others in DMSO
[13] = Mueller-Hinton agar, 24 hours at 37° C., (101), (103) solution in EtOH, others in DMSO

SMILES	MIC values C. albicans [1]	MIC values S. heminis [2]	MIC values P. aeruginosa [3]	MIC values A. niger [4]	MIC values E. coli [5]	MIC S. aureus [6, 13]	other results
CCOc1cc(/C=C/c2ccc(C)cc2)ccc1O [Comp. of formula 183]	>100 ppm	>100 ppm	>100 ppm	>100 ppm	>100 ppm	–	–
COc1cc(/C=C/c2ccc(C)cc2)ccc1O [Comp. of formula 184]	>100 ppm	>100 ppm	>100 ppm	100 ppm	>100 ppm	–	–
Cc1ccc(/C=C/c2ccccc2O)cc1 [Comp. of formula 186]	30 ppm	30 ppm	100 ppm	60 ppm	30 ppm	–	–
COc1cc(/C=C/c2ccc(C)cc2)cc(O)c1OC [Comp. of formula 187]	>100 ppm	>100 ppm	>100 ppm	>100 ppm	>100 ppm	–	–
Cc1ccc(/C=C/c2cccc(C)c2O)cc1 [Comp. of formula 189]	>100 ppm	>100 ppm	>100 ppm	>100 ppm	100 ppm	–	–
Oc1cc(O)cc(C=Cc2ccccc2)c1 [Compound of formula (101), 3,5-dihydroxystilbene]	–	–	–	–	–	–	MIC ([6]; ATCC9144, Mueller-Hinton agar, 24 hours at 37° C., (101), (103) solution in EtOH, others in DMSO): 100 µg/mL; MIC ([7]; ATCC10231, Mueller-Hinton agar, 24 hours at 37° C., (101), (103) solution in EtOH, others in DMSO): 100 µg/mL; MIC ([8]; Pseudomonas aeruginosa, CIPA22, read-out: MIC P. aeruginosa): 100 µg/mL; MIC [9, 12]: 100 µg/mL; MIC ([10]; NCTC8196, Mueller-Hinton agar, 24 hours at 37° C., (101), (103) solution in EtOH, (102) in DMSO): 100 µg/mL
Oc1cccc(/C=C/c2ccccc2)c1 [Compound of formula (102), 3-hydroxystilbene]	–	–	–	–	–	–	MIC ([6]; ATCC9144, 24 h): 100 µg/mL; MIC ([7]; ATCC10231, 24 h): 100 µg/mL; MIC [9]: 10 µg/mL; MIC ([10]; NCTC8196, 24 h): 100 µg/mL
Oc1ccc(/C=C/c2cc(O)cc(O)c2)cc1 [Compound of formula (103)]	–	–	–	–	–	600 ppm	MIC C. xerosis [11]: 100 ppm; MIC C. albicans [7, 13]: 600 ppm; MIC P. aeruginosa [8]: 600 ppm; MIC E. coli ([10]; Mueller-Hinton agar, 24 hours at 37° C., (101), (103) solution in EtOH, (102) in DMSO): 600 ppm
CN(C)c1ccc(/C=C/c2ccccc2)cc1 [Compound of formula (104)]	–	–	–	–	–	300 ppm	MIC C. albicans [7, 13]: 600 ppm
Oc1ccc(/C=C/c2ccc(Cl)cc2)cc1 [Compound of formula (106)]	–	–	–	–	–	10 ppm	MIC A. niger [9, 12]: 600 ppm
